The record followed here is paper PMC11913021 (Journal of Medicinal Chemistry, 2024).

For one assay, the target named is T1, F614A mutant PLD1 (Homo sapiens, UniProt Q13393, F652A).
T1 sequence (Q13393 1-1036 isoform Q13393-2 F614A): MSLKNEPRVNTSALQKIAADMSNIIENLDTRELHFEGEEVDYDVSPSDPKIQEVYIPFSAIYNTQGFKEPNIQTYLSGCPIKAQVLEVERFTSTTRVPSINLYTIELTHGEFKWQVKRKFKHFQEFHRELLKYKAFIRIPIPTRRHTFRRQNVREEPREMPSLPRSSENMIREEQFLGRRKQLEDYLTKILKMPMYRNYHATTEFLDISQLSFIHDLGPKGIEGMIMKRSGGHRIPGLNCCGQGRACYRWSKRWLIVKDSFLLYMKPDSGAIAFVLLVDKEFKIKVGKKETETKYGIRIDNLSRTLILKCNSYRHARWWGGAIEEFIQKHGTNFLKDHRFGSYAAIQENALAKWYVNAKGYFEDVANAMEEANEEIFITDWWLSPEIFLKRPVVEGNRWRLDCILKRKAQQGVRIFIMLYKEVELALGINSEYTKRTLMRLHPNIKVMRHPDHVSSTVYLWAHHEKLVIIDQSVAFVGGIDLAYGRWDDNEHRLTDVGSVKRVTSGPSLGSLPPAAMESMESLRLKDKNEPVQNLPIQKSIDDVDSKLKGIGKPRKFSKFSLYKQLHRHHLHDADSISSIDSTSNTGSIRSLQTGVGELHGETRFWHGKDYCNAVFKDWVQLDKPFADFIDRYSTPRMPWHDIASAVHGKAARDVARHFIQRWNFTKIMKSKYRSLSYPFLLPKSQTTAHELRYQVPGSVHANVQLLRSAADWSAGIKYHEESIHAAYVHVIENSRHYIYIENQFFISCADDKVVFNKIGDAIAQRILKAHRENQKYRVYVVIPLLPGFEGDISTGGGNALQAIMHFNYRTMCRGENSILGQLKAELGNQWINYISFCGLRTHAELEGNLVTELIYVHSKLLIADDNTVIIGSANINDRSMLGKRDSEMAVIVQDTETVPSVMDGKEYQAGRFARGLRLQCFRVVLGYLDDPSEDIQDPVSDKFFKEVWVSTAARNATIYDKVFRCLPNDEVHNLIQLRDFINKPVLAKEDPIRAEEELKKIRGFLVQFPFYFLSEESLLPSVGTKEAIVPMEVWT
The assay can be described thus: PLD activity assay in F614A mutant PLD1-transfected cells. The assay is classed as cell-based.

The test system of the next assay is A549 cells. Briefly: IncuCyte cell growth and death assay. The assay is classed as cell-based. Particulars: time-dependent.

For “N-(3,5-Bis(trifluoromethyl)phenyl)-3-(1H-indol-3-yl)propanamide [3r]”, the PLD activity result on F614A mutant PLD1 is reported as “did not significantly inhibit”. Moreover, in the assay on A549 cells, the “death of A549 cells” value was “increased” and the “proliferation of A549 cells” value is “significantly suppressed”.
